Data: patent US20100317593A1, “2,3-DIHYDRO-1H-INDENE COMPOUNDS” (ASTRAZENECA AB, priority 2009, published 2010)

Molecular target: T1, Glutathione-S-transferase tagged Bir3 domain of cIAP1 (L250-G350) (Homo sapiens, UniProt Q13490)
T1 construct: The cIAP1 Bir3 domain construct (aa L250-G350) was prepared from a full length cIAP1 clone; made in house; host or cells: Escherichia coli BL21 (DE3), pGEX-6P-1 vector
Assay: Fluorescence polarization assay, cIAP1 Bir3 domain
Assay type: binding
Details: 20 nM cIAP1-Bir3, 2.5 nM AbuRPF-K-5FAM tracer, 20-minute incubation
Method: Materials: The cIAP1 Bir3 domain construct (aa L250-G350) was prepared from a full length cIAP1 clone (NCBI Reference Sequence: NM_001166.3). PCR was used to generate the Bir3 fragment which was inserted into a pGEX-6P-1 vector (GE LifeSciences) as a BamHI/XhoI fragment. Protein was prepared in Escherichia coli BL21 (DE3) grown at 37° C. containing ampicillin to an OD600 of 0.6. Protein expression was induced by 1 mM isopropyl β-D-1-thiogalactopyranoside (IPTG) for 3.75 hours.
Cells were lysed by sonication in buffer containing 100 mM Tris (pH 7.5), 150 mM NaCl, 5 mm dithiothreitol (DTT), 50 μM zinc acetate (ZnAc), ethylenediamine tetraacetic acid (EDTA) free Complete protease inhibitors (Roche Applied Science), 100 μg/mL lysozyme, and 0.5% Triton-X100. DNAse was added to the mixture after sonication. Proteins were purified from the soluble fraction using Glutathione Sepharose 4B resin (GE Lifesciences) followed by desalting on a PD-10 column (GE Lifesciences). This was followed by purification over an SEC 200 resin (GE Lifesciences). Final storage buffer consisted of 25 mM Tris, pH 7.5, 200 mM NaCl, 5 mM DTT, 50 uM ZnAc, 10% glycerol.
The fluorescence polarization assay was developed using Glutathione-S-transferase tagged Bir3 domain of cIAP1 (L250-G350). The tracer used was a synthetic peptide conjugated to 5-carboxyfluorescein (AbuRPF-K-5FAM).
Methods: Dilutions of cIAP1-Bir3 (20 nM) were added to 2.5 nM of fluorescent peptide tracer in assay buffer (final concentrations of 20 mM HEPES, pH 7.5, 1 mM DTT, 0.005% Tween-20 and 50 mM NaCl) containing various dilutions of binding inhibitors. Samples were read by a Tecan Ultra Evolution (Tecan US Inc, Durham N.C.) after a 20-minute incubation.
Fluorescence polarization values were plotted as a function of the antagonist concentration and the IC50 values were determined.

T1 sequence (Q13490 250-350): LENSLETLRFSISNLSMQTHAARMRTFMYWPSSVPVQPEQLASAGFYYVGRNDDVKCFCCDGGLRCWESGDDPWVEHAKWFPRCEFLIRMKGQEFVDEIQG

Row | IC50 | Compound
1 | 12 nM | CN[C@@H](C)C(=O)N[C@H](C(=O)N1CCC[C@H]1C(=O)N[C@H]1c2ccccc2C[C@H]1OCC#CC#CCO[C@@H]1Cc2ccccc2[C@@H]1NC(=O)[C@@H]1CCCN1C(=O)[C@@H](NC(=O)[C@H](C)NC)C1CCCCC1)C1CCCCC1 [Example 1, (S,S,2S,2′S)-N,N′-((1S,1′S,2R,2′R)-2,2′-(hexa-2,4-diyne-1,6-diylbis(oxy))bis(2,3-dihydro-1H-indene-2,1-diyl))bis(1-((S)-2-cyclohexyl-2-((S)-2-(methylamino)propanamido)acetyl)pyrrolidine-2-carboxamide)]
2 | 15 nM | C#CCO[C@@H]1Cc2ccccc2[C@@H]1NC(=O)[C@@H]1CCCN1C(=O)[C@@H](NC(=O)[C@H](C)NC)C1CCCCC1 [Example 2, (S)-1-((S)-2-cyclohexyl-2-((S)-2-(methylamino)propanamido)acetyl)-N-((1S,2R)-2-(prop-2-ynyloxy)-2,3-dihydro-1H-inden-1-yl)pyrrolidine-2-carboxamide]
3 | 13 nM | CN[C@@H](C)C(=O)N[C@H](C(=O)N1CCC[C@H]1C(=O)N[C@H]1c2ccccc2C[C@H]1OCCCCCCO[C@@H]1Cc2ccccc2[C@@H]1NC(=O)[C@@H]1CCCN1C(=O)[C@@H](NC(=O)[C@H](C)NC)C1CCCCC1)C1CCCCC1 [Example 3, (S,S,2S,2′S)-N,N′-((1S,1′S,2R,2′R)-2,2′-(Hexane-1,6-diylbis(oxy))bis(2,3-dihydro-1H-indene-2,1-diyl))bis(1-((S)-2-cyclohexyl-2-((S)-2-(methylamino)propanamido)acetyl)pyrrolidine-2-carboxamide)]
4 | 42.9 nM | CN[C@@H](C)C(=O)N[C@H](C(=O)N1CCC[C@H]1C(=O)N[C@H]1c2ccccc2C[C@@H]1OCC#CC#CCO[C@H]1Cc2ccccc2[C@@H]1NC(=O)[C@@H]1CCCN1C(=O)[C@@H](NC(=O)[C@H](C)NC)C1CCCCC1)C1CCCCC1 [Example 4, (S,S,2S,2′S)-N,N′-((1S,1′S,2S,2′S)-2,2′-(hexa-2,4-diyne-1,6-diylbis(oxy))bis(2,3-dihydro-1H-indene-2,1-diyl))bis(1-((S)-2-cyclohexyl-2-((S)-2-(methylamino)propanamido)acetyl)pyrrolidine-2-carboxamide)]
